# Molecular target: recombinant human PAI-1 (Homo sapiens, UniProt P05121)
# Assay: PAI-1 inhibitory activity, Test Method A (tPA fluorogenic substrate, Tris buffer pH8.0, 37 C)
# Type: biochemical
# Details: for Inhibitory Ratio at 25 μM (%): Test Method A
# Chain of recombinant human PAI-1 (P05121 24-402): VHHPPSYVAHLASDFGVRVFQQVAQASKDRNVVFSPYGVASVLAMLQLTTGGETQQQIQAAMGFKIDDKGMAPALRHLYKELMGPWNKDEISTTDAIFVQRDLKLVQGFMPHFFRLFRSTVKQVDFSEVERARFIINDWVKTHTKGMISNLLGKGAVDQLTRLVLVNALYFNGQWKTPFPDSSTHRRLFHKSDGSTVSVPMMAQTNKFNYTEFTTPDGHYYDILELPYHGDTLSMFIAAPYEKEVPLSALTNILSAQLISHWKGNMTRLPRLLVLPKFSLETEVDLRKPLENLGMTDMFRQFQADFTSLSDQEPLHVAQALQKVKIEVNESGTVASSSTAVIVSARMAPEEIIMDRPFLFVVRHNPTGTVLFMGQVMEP
Compound,Inhibitory Ratio at 25 μM (%) (test compound 25 μM),Inhibitory Ratio at 25 μM (%) (25 μM test compound),other results
CC1=NN(c2ccc([N+](=O)[O-])cc2)C(=O)C1=Cc1cc(O)c(O)c(O)c1 [compound 135],94,–,–
"COc1ccc(O)c(C=C2C(=O)N(c3ccc(Cl)c(Cl)c3)N=C2C(C)C)c1 [compound 518, 4-(2-hydroxy-5-methoxybenzylidene)-1-(3,4-dichlorophenyl)-3-isopropyl-2-pyrazolin-5-one]",–,83,–
O=C(O)c1cccc(N2N=C(c3ccccc3)C(=Cc3ccc(-c4cc(Cl)cc(Cl)c4)o3)C2=O)c1 [compound 216],94,–,–
COc1cc(C=C2SC(=O)N(Cc3ccc(Cl)c(Cl)c3)C2=O)cc(C(=O)Nc2cc(C(F)(F)F)ccc2Cl)c1O [compound 439],–,89,–
CC1=NN(c2cccc(C(=O)O)c2)C(=O)C1=Cc1ccccc1 [compound 172],32,–,–
CC1=NN(c2cc(Cl)cc(Cl)c2)C(=O)C1=Cc1cc(O)c(O)cc1O [compound 501],–,>99,"IC50 (50% inhibitory concentration of PAI-1 activity, according to the aforementioned method): 810 nM"
O=C(O)c1ccc(Cl)c(-c2ccc(C=C3C(=O)N(c4cccc(C(F)(F)F)c4)N=C3O)o2)c1 [compound 220],>99,–,–
CC1=NN(c2cccc(C(F)(F)F)c2)C(=O)C1=Cc1cccc(O)c1 [compound 122],35,–,–
CC(C)C1=NN(c2ccc(C=Cc3ccccn3)cc2)C(=O)C1=Cc1cc(O)c(O)cc1O [compound 545],–,74,–
O=C1C(=Cc2ccc(O)c(O)c2O)C(c2ccccc2)=NN1c1ccc(Cl)c(Cl)c1 [compound 148],62,–,–
"O=C1SC(=Cc2cccc(O)c2O)C(=O)N1Cc1ccc(-c2ccccc2)cc1 [compound 20, 5-(2,3-Dihydroxybenzylidene)-3-(4-phenylbenzyl)thiazolidine-2,4-dione]",>99,–,–
CCOC1=NN(c2ccc([N+](=O)[O-])cc2)C(=O)C1=Cc1ccc(C)c(OC)c1 [compound 213],40,–,–
"O=C1C(=Cc2cc(Br)ccc2O)C(c2ccc(O)cc2)=NN1c1ccc(Cl)cc1 [compound 520, 4-(2-Hydroxy-5-bromobenzylidene)-1-(4-chlorophenyl)-3-(4-hydroxyphenyl)-2-pyrazolin-5-one]",–,>99,–
Cc1cccc(N2N=C(C(C)C)C(=Cc3cc(O)c(O)c(O)c3)C2=O)c1 [compound 157],37,–,–
"COC(=O)c1cccc(N2N=C(C(C)C)C(=Cc3cc(Br)cc(Br)c3O)C2=O)c1 [compound 108, 4-(3,5-Dibromo-2-hydroxybenzylidene)-1-[3-(Methoxycarbonyl)phenyl]-3-isopropyl-2-pyrazolin-5-one]",27,–,–
"CC(C)C1=NN(c2ccc(Cl)nc2)C(=O)C1=Cc1cc(O)c(O)cc1O [compound 222, 4-(2,4,5-Trihydroxybenzylidene)-1-(2-chloropyridin-5-yl)-3-isopropyl-2-pyrazolin-5-one]",79,–,–
CC(C)C1=NN(c2cc(Cl)cc(Cl)c2)C(=O)C1=Cc1c[nH]cn1 [compound 508],–,26,–
COC(=O)c1cccc(N2N=C(C(F)(F)F)C(=Cc3ccc(SCCN(C)C)s3)C2=O)c1 [compound 178],40,–,–
"COC(=O)c1cccc(N2N=C(C(F)(F)F)C(=Cc3ccc(-c4cc(Cl)cc(Cl)c4)o3)C2=O)c1 [compound 166, 4-{[5-(3,5-Dichlorophenyl)furan-2-yl]methylene}-1-[3-(methoxycarbonyl)phenyl]-3-trifluoromethyl-2-pyrazolin-5-one]",>99,–,–
CCN(CC)c1ccc(O)c(C=C2C(=O)N(c3ccc(Cl)c(Cl)c3)N=C2C(C)C)c1 [compound 560],–,>99,–
Nc1cc(C=C2SC(=O)N(Cc3ccc(Cl)c(Cl)c3)C2=O)ccc1O [compound 86],21,–,–
O=C1C(=Cc2ccc(O)c(O)c2)C(c2ccccc2)=NN1c1ccc(Cl)c(Cl)c1 [compound 221],>99,–,–
COC(=O)c1cccc(-c2ccc(C=C3C(=O)N(c4ccc(F)cc4)N=C3O)o2)c1 [compound 160],50,–,–
O=C1SC(=Cc2ccc3c(c2)OCO3)C(=O)N1Cc1ccc(Cl)cc1Cl [compound 336],–,61,–
COc1cc(C=C2C(=O)N(c3ccc(Cl)c(Cl)c3)N=C2C(C)C)cc([N+](=O)[O-])c1O [compound 561],–,91,–
"O=C1SC(=Cc2cc(Br)cc(Br)c2O)C(=O)N1Cc1cc(C(F)(F)F)cc(C(F)(F)F)c1 [compound 2, 5-(3,5-Dibromo-2-hydroxybenzylidene)-3-[3,5-bis(trifluoromethyl)benzyl]-thiazolidine-2,4-dione]",52,–,–
CC(C)C1=NN(c2cccc(C(=O)O)c2)C(=O)C1=Cc1ccc(-c2cc(Cl)cc(Cl)c2)o1 [compound 211],31,–,–

# Further lines, with some results ahead:
Inhibitory Ratio at 25 μM (%) (test compound 25 μM),Inhibitory Ratio at 25 μM (%) (25 μM test compound),Compound,other results
>99,–,"O=C1SC(=Cc2cccc(O)c2O)C(=O)N1CCc1ccc(Cl)cc1 [compound 90, 5-(2,3-Dihydroxybenzylidene)-3-[2-(4-chlorophenyl)ethyl]thiazolidine-2,4-dione]",–
>99,–,O=C1SC(=Cc2cccc(O)c2O)C(=O)N1Cc1cc(C(F)(F)F)cc(C(F)(F)F)c1 [compound 70],–
>99,–,O=C1SC(=Cc2ccc(O)c(O)c2)C(=O)N1Cc1cccc(Br)c1 [compound 35],–
–,73,"COC(=O)c1ccc(NC(=O)c2cc(C=C3SC(=O)N(Cc4ccc(Cl)c(Cl)c4)C3=O)ccc2O)cc1 [compound 416, 5-{4-hydroxy-3-[4-(methoxycarbonyl)phenylcarbamoyl]benzylidene}-3-(3,4-dichlorobenzyl)thiazolidine-2,4-dione]",–
–,>99,"COc1ccc(C=C2SC(=O)N(Cc3ccc(Cl)c(Cl)c3)C2=O)cc1NC(=O)c1ccc(O)c(O)c1 [compound 359, 5-[4-Methoxy-3-(3,4-dihydroxybenzoylamino)benzylidene]-3-(3,4-dichlorobenzyl)thiazolidine-2,4-dione]",–
–,69,O=C(Nc1cc(F)ccc1F)c1cc(C=C2SC(=O)N(Cc3ccc(Cl)c(Cl)c3)C2=O)ccc1O [compound 465],–
–,63,"COc1ccc(NC(=O)c2cc(C=C3SC(=O)N(CCc4ccc(Cl)cc4)C3=O)ccc2O)cc1OC [compound 375, 5-[4-Hydroxy-3-(3,4-dimethoxyphenylcarbamoyl)benzylidene]-3-[2-(4-chlorophenyl)ethyl]thiazolidine-2,4-dione]",–
–,>99,"COc1ccc(NC(=O)c2cc(C=C3SC(=O)N(Cc4cc(F)cc(F)c4)C3=O)ccc2O)cc1OC [compound 385, 5-[4-Hydroxy-3-(3,4-dimethoxyphenylcarbamoyl)benzylidene]-3-(3,5-difluorobenzyl)thiazolidine-2,4-dione]",–
>99,–,"O=C1SC(=Cc2cccc(O)c2O)C(=O)N1Cc1cc(F)cc(F)c1 [compound 24, 5-(2,3-Dihydroxybenzylidene)-3-(3,5-difluorobenzyl)thiazolidine-2,4-dione]",–
–,>99,COc1ccc(Cl)cc1NC(=O)c1cc(C=C2SC(=O)N(Cc3ccc(Cl)c(Cl)c3)C2=O)ccc1O [compound 454],–
–,82,O=C(Nc1ccc2c(c1)OCO2)c1cc(C=C2SC(=O)N(Cc3ccc(Cl)c(Cl)c3)C2=O)cc(O)c1O [compound 474],–
–,>99,COC(=O)c1cc(C=C2SC(=O)N(Cc3ccc(Cl)c(Cl)c3)C2=O)cc(O)c1O [compound 344],–
–,>99,COc1ccc(NC(=O)c2cc(C=C3SC(=O)N(Cc4ccc(Cl)c(Cl)c4)C3=O)cc(OC)c2O)cc1C(F)(F)F [compound 360],–
–,>99,"N=C(N)NCCC[C@H](N)C(=O)O.N=C(N)NCCC[C@H](N)C(=O)O.O=C1SC(=Cc2ccc(O)c(O)c2)C(=O)N1Cc1ccc(Cl)cc1Cl [compound 335, di(L-(+)-arginine) salt of 5-(3,4-dihydroxybenzylidene)-3-(2,4-dichlorobenzyl)thiazolidine-2,4-dione]",–
–,84,"COc1ccc(NC(=O)c2cc(C=C3SC(=O)N(Cc4ccc([N+](=O)[O-])cc4)C3=O)ccc2O)cc1OC [compound 376, 5-[4-Hydroxy-3-(3,4-dimethoxyphenylcarbamoyl)benzylidene]-3-(4-nitrobenzyl)thiazolidine-2,4-dione]",–
60,–,O=C(Nc1ccc(CN2C(=O)SC(=Cc3ccc(O)c(O)c3)C2=O)cc1)c1ccccc1 [compound 83],–
–,95,O=C(Nc1ccc(O)c(O)c1)c1cc(C=C2SC(=O)N(Cc3cc(Cl)cc(Cl)c3)C2=O)ccc1O [compound 396],–
–,37,"COC(=O)c1c(O)cc(C=C2SC(=O)N(Cc3ccc(Cl)cc3Cl)C2=O)cc1O [compound 342, 5-[3,5-Dihydroxy-4-(methoxycarbonyl)benzylidene]-3-(2,4-dichlorobenzyl)thiazolidine-2,4-dione]",–
92,–,"CC(C)C1=NN(c2cc(Cl)cc(Cl)c2)C(=O)C1=Cc1cccc(O)c1O [compound 104, 4-(2,3-Dihydroxybenzylidene)-1-(3,5-dichlorophenyl)-3-isopropyl-2-pyrazolin-5-one]",–
–,>99,"Cc1cc(C=C2SC(=O)N(Cc3ccc(Cl)c(Cl)c3)C2=O)cc(C(=O)O)c1O [compound 390, 5-(3-Methyl-4-hydroxy-5-carboxybenzylidene)-3-(3,4-dichlorobenzyl)thiazolidine-2,4-dione]",–
–,21,COc1ccc(C=C2SC(=O)N(Cc3ccc(Cl)c(Cl)c3)C2=O)cc1O [compound 323],–
>99,–,"O=C1SC(=Cc2ccc(O)c(O)c2)C(=O)N1Cc1cc(Br)cc(Br)c1 [compound 46, 5-(3,4-Dihydroxybenzylidene)-3-(3,5-dibromobenzyl)thiazolidine-2,4-dione]",–
–,>99,"CC(C)C1=NN(c2cc(Cl)cc(Cl)c2)C(=O)C1=Cc1cc(O)c(O)cc1Br [compound 556, 4-(2-Bromo-4,5-dihydroxybenzylidene)-1-(3,5-dichlorophenyl)-3-isopropyl-2-pyrazolin-5-one]",–

# Source: US20070276011A1, “Plasminogen Activator Inhibitor-1 Inhibitor” (priority 2003, published 2007)
